Results reported in ChEMBL document CHEMBL5727056, “Substituted indazoles, methods for the production thereof, pharmaceutical preparations that contain said new substituted indazoles, and use of said new substituted indazoles to produce drugs” (2019).

Target: T1, Interleukin-1 receptor-associated kinase 4 (Homo sapiens, UniProt Q9NWZ3)
T1 sequence (Q9NWZ3 whole entry): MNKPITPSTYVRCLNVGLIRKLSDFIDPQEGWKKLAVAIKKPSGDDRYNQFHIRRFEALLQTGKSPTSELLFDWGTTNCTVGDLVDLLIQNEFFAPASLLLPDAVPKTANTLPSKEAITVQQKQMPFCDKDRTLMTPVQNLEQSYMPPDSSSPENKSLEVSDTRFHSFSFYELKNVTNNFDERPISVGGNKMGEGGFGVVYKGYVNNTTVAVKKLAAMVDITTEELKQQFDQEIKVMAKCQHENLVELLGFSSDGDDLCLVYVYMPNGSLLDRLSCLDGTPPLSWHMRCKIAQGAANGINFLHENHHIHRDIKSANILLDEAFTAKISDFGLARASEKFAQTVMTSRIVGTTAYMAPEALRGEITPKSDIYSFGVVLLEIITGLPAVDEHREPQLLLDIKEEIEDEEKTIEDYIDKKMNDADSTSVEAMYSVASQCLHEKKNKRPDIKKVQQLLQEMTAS
Experiment: IRAK4 Kinase Assay: For the assay, 11 different concentrations in the range from 20 μM to 0.073 nM were prepared from a 2 mM DMSO solution of the test substance. 50 nl of the respective solution were pipetted into a black low-volume 384-well microtitre plate (Greiner Bio-One, Frickenhausen, Germany), 2 μl of a solution of IRAK4 in assay buffer [50 mM HEPES pH 7.5, 5 mM MgCl2, 1.0 mM …

SMILES: COCCn1cc2cc(NC(=O)c3cccc(C(F)(F)F)n3)c(CO)cc2n1
- IC50: 136 nM
